Data published in US6844353B2, “Fungicidal properties of sampangine and its analogs to agriculturally important fungal plant pathogens” (The United States of America as represented by the …, priority 2003, dated 2005).

Columns and labels:
Experiment in all cases: 96-well microtiter plate assay, fungal growth inhibition
[1] = test system: C. fragariae; assay type: cell-based, Colletotrichum fragariae; conditions: C. fragariae
From the text: (§1) Pathogen production. Isolates of Colletotrichum acutatum Simmonds, Colletotrichum fragariae Brooks, and Colletotrichum gloeosporioides (Penz.) Penz. & Sacc. in Penz. were obtained from B. J. Smith, USDA, ARS, Small Fruit Research Station, Poplarville, Miss. Colletotrichum fragariae (isolate CF63), C. acutatum (isolate CAGoff), and C. gloeosporioides (isolate CG162) were used for all pathogen and bioautography studies. Isolate CF63 is one of the most virulent isolates at infecting strawberry plants and inducing both crown and fruit rot (Smith and Black, 1990). CF63, CAGoff, and CG162 were used as standard test isolates because of our extensive knowledge of these isolates and their known fungicide sensitivity profiles in both bioautography and microtiter formats. The three Colletotrichum species were isolated from strawberry (Fragaria x ananassa Duchesne). Botrytis cinerea Pers.: Fr, was isolated from commercial grape (Vitis vinifera L.) and Fusarium oxysporum Schlechtend: Fr from orchid (Cynoches sp.). Phomopsis viticola (Sacc.) and P. obscurans (Ellis & Everh.) Sutton were from Mike A. Ellis, Ohio State University, Wooster, Ohio. Fungi were grown on potato-dextrose agar (PDA, Difco, Detroit, Mich.) in 9 cm petri dishes and incubated in a growth chamber at 24±2° C. and under cool-white fluorescent lights ([…]·m^−2·sec^−1 light) with 12 hour photoperiod.
(§2) Inoculum preparation. Conidia were harvested from 7-10 day-old cultures by flooding plates with 5 mL of sterile distilled water and dislodging conidia by softly brushing the colonies with an L-shaped glass rod. Conidial suspensions were filtered through sterile miracloth (Calbiochem-Novabiochem Corp., La Jolla, Calif.) to remove mycelia. Conidia concentrations were determined photometrically, from a standard curve based on the percent of transmittance (% T) at 625 nm and suspensions were then adjusted with sterile distilled water to a concentration of 1.0×10^6 conidia/mL.
(§3) Microtiter assay. A standardized 96-well microtiter plate assay developed for discovery of natural product fungicidal agents was used to evaluate naturally occurring antifungal agents from Macaranga monanara. A 96-well microtiter assay was used to determine sensitivity of B. cinerea, C. acutatum, C. fragariae, C. gloeosporioides, F. oxysporum, Phomopsis viticola, and P. obscurans to the various antifungal agents in comparison with known fungicidal standards. Vinclozolin, captan, and thiabendazole, which represent three different modes of action, were used as standards in this experiment. Each fungus was challenged in a dose-response format using test compounds where the final treatment concentrations were 0.3, 3.0 and 30.0 μM. Microtiter plates (Nunc MicroWell, untreated; Roskilde, Denmark) were covered with a plastic lid and incubated in a growth chamber as described previously for fungal growth. Growth was then evaluated by measuring absorbance of each well at 620 nm using a microplate photometer (Packard Spectra Count, Packard Instrument Co., Downers Grove, Ill.). Microtiter plates (Nunc MicroWell, untreated; Roskilde, Denmark) were covered with a plastic lid and incubated in a growth chamber at 24±1° C. and 12 hour photoperiod under 60±5 μmol light. Growth was then evaluated by measuring absorbance of each well at 620 nm using a microplate photometer (Packard Spectra Count, Packard Instrument Co., Downers Grove, Ill.).
(§4) Microbioassy Experimental Design. Chemical sensitivity each of B. cinerea, C. acutatum, C. fragariae, C. gloeosporiodes, F. oxysporum, Phomopsis viticola, and P. obscurans was evaluated using 96-well plate microbioassay format. Each chemical was evaluated in duplicate at each dose (0.3, 3.0 and 30.0 μM). […]

[2] = test system: F. oxysporum; assay type: cell-based, Fusarium oxysporum; conditions: F. oxysporum
From the text: as §1, §2, §3, §4

[3] = test system: B. cinerea; assay type: cell-based, Botrytis cinerea; conditions: B. cinerea
From the text: as §1, §2, §3, §4

[4] = test system: C. acutatum; assay type: cell-based, Colletotrichum acutatum; conditions: C. acutatum
From the text: as §1, §2, §3, §4

[5] = test system: C. gloeosporioides; assay type: cell-based, Colletotrichum gloeosporioides; conditions: C. gloeosporioides
From the text: as §1, §2, §3, §4

Structure (SMILES): O=C1c2ccccc2-c2nccc3c(Br)cnc1c23 [4-bromosampangine]
- Percent inhibition−Percent Stimulation±SEM ([1]; 0.3 μM, 48 hrs): −46.3 ± 5.0%
- Percent inhibition−Percent Stimulation±SEM ([1]; 0.3 μM, 72 hrs): −15.2 ± 8.2%
- Percent inhibition−Percent Stimulation±SEM ([1]; 3.0 μM, 48 hrs): −87.3 ± 2.0%
- Percent inhibition−Percent Stimulation±SEM ([1]; 3.0 μM, 72 hrs): −45.8 ± 5.6%
- Percent inhibition−Percent Stimulation±SEM ([1]; 30 μM, 48 hrs): −55.9 ± 7.1%
- Percent inhibition−Percent Stimulation±SEM ([1]; 30 μM, 72 hrs): −26.7 ± 7.3%
- Percent inhibition−Percent Stimulation±SEM ([2]; 0.3 μM, 48 hrs): −20.4 ± 4.6%
- Percent inhibition−Percent Stimulation±SEM ([2]; 0.3 μM, 72 hrs): −2.8 ± 1.9%
- Percent inhibition−Percent Stimulation±SEM ([2]; 3.0 μM, 48 hrs): −42.3 ± 4.5%
- Percent inhibition−Percent Stimulation±SEM ([2]; 3.0 μM, 72 hrs): −14.0 ± 2.1%
- Percent inhibition−Percent Stimulation±SEM ([2]; 30 μM, 48 hrs): −25.8 ± 2.6%
- Percent inhibition−Percent Stimulation±SEM ([2]; 30 μM, 72 hrs): −9.1 ± 3.0%
- Percent inhibition−Percent Stimulation±SEM ([3]; 0.3 μM, 48 hrs): −41.1 ± 9.4%
- Percent inhibition−Percent Stimulation±SEM ([3]; 0.3 μM, 72 hrs): −22.6 ± 13.7%
- Percent inhibition−Percent Stimulation±SEM ([3]; 3.0 μM, 48 hrs): −59.2 ± 6.7%
- Percent inhibition−Percent Stimulation±SEM ([3]; 3.0 μM, 72 hrs): −38.8 ± 9.4%
- Percent inhibition−Percent Stimulation±SEM ([3]; 30 μM, 48 hrs): −29.7 ± 9.7%
- Percent inhibition−Percent Stimulation±SEM ([3]; 30 μM, 72 hrs): 2.5 ± 8.9%
- Percent inhibition−Percent Stimulation±SEM ([4]; 0.3 μM, 48 hrs): −23.3 ± 8.0%
- Percent inhibition−Percent Stimulation±SEM ([4]; 0.3 μM, 72 hrs): −7.1 ± 6.3%
- Percent inhibition−Percent Stimulation±SEM ([4]; 3.0 μM, 48 hrs): −73.4 ± 6.8%
- Percent inhibition−Percent Stimulation±SEM ([4]; 3.0 μM, 72 hrs): −24.9 ± 8.7%
- Percent inhibition−Percent Stimulation±SEM ([4]; 30 μM, 48 hrs): −33.4 ± 6.9%
- Percent inhibition−Percent Stimulation±SEM ([4]; 30 μM, 72 hrs): −10.5 ± 6.7%
- Percent inhibition−Percent Stimulation±SEM ([5]; 0.3 μM, 48 hrs): −100.0 ± 1.5%
- Percent inhibition−Percent Stimulation±SEM ([5]; 0.3 μM, 72 hrs): −99.0 ± 0.6%
- Percent inhibition−Percent Stimulation±SEM ([5]; 3.0 μM, 48 hrs): −98.9 ± 0.5%
- Percent inhibition−Percent Stimulation±SEM ([5]; 3.0 μM, 72 hrs): −99.1 ± 0.4%
- Percent inhibition−Percent Stimulation±SEM ([5]; 30 μM, 48 hrs): −96.0 ± 1.4%
- Percent inhibition−Percent Stimulation±SEM ([5]; 30 μM, 72 hrs): −99.7 ± 0.4%

Structure (SMILES): COc1cnc2c3c(nccc13)-c1ccccc1C2=O [4-methoxysampangine]
- Percent inhibition−Percent Stimulation±SEM ([1]; 0.3 μM, 48 hrs): −15.0 ± 7.5%
- Percent inhibition−Percent Stimulation±SEM ([1]; 0.3 μM, 72 hrs): −30.2 ± 7.4%
- Percent inhibition−Percent Stimulation±SEM ([1]; 3.0 μM, 48 hrs): −75.2 ± 6.7%
- Percent inhibition−Percent Stimulation±SEM ([1]; 3.0 μM, 72 hrs): −44.3 ± 6.5%
- Percent inhibition−Percent Stimulation±SEM ([1]; 30 μM, 48 hrs): −67.9 ± 13.6%
- Percent inhibition−Percent Stimulation±SEM ([1]; 30 μM, 72 hrs): −39.6 ± 6.3%
- Percent inhibition−Percent Stimulation±SEM ([2]; 0.3 μM, 48 hrs): −10.3 ± 4.7%
- Percent inhibition−Percent Stimulation±SEM ([2]; 0.3 μM, 72 hrs): 2.9 ± 4.2%
- Percent inhibition−Percent Stimulation±SEM ([2]; 3.0 μM, 48 hrs): −66.8 ± 5.5%
- Percent inhibition−Percent Stimulation±SEM ([2]; 3.0 μM, 72 hrs): −33.5 ± 1.9%
- Percent inhibition−Percent Stimulation±SEM ([2]; 30 μM, 48 hrs): −43.6 ± 2.7%
- Percent inhibition−Percent Stimulation±SEM ([2]; 30 μM, 72 hrs): −23.5 ± 1.6%
- Percent inhibition−Percent Stimulation±SEM ([3]; 0.3 μM, 48 hrs): −23.0 ± 14.4%
- Percent inhibition−Percent Stimulation±SEM ([3]; 0.3 μM, 72 hrs): −4.8 ± 12.6%
- Percent inhibition−Percent Stimulation±SEM ([3]; 3.0 μM, 48 hrs): −59.2 ± 6.7%
- Percent inhibition−Percent Stimulation±SEM ([3]; 3.0 μM, 72 hrs): −18.4 ± 5.4%
- Percent inhibition−Percent Stimulation±SEM ([3]; 30 μM, 48 hrs): −20.3 ± 21.8%
- Percent inhibition−Percent Stimulation±SEM ([3]; 30 μM, 72 hrs): 19.0 ± 14.3%
- Percent inhibition−Percent Stimulation±SEM ([4]; 0.3 μM, 48 hrs): −5.1 ± 7.8%
- Percent inhibition−Percent Stimulation±SEM ([4]; 0.3 μM, 72 hrs): −0.3 ± 6.4%
- Percent inhibition−Percent Stimulation±SEM ([4]; 3.0 μM, 48 hrs): −75.1 ± 6.8%
- Percent inhibition−Percent Stimulation±SEM ([4]; 3.0 μM, 72 hrs): −44.1 ± 6.5%
- Percent inhibition−Percent Stimulation±SEM ([4]; 30 μM, 48 hrs): −51.3 ± 6.2%
- Percent inhibition−Percent Stimulation±SEM ([4]; 30 μM, 72 hrs): −25.4 ± 5.4%
- Percent inhibition−Percent Stimulation±SEM ([5]; 0.3 μM, 48 hrs): −48.5 ± 6.7%
- Percent inhibition−Percent Stimulation±SEM ([5]; 0.3 μM, 72 hrs): −15.6 ± 1.9%
- Percent inhibition−Percent Stimulation±SEM ([5]; 3.0 μM, 48 hrs): −94.4 ± 0.9%
- Percent inhibition−Percent Stimulation±SEM ([5]; 3.0 μM, 72 hrs): −91.1 ± 2.1%
- Percent inhibition−Percent Stimulation±SEM ([5]; 30 μM, 48 hrs): −95.9 ± 3.4%
- Percent inhibition−Percent Stimulation±SEM ([5]; 30 μM, 72 hrs): −79.7 ± 6.0%

Structure (SMILES): CO/N=C(/C(=O)OC)c1ccccc1COc1ccccc1C [BAS 490]
- Percent inhibition−Percent Stimulation±SEM ([1]; 0.3 μM, 48 hrs): −68.8 ± 7.1%
- Percent inhibition−Percent Stimulation±SEM ([1]; 0.3 μM, 72 hrs): −35.6 ± 5.6%
- Percent inhibition−Percent Stimulation±SEM ([1]; 3.0 μM, 48 hrs): −86.4 ± 3.5%
- Percent inhibition−Percent Stimulation±SEM ([1]; 3.0 μM, 72 hrs): −71.9 ± 3.5%
- Percent inhibition−Percent Stimulation±SEM ([1]; 30 μM, 48 hrs): −91.5 ± 1.7%
- Percent inhibition−Percent Stimulation±SEM ([1]; 30 μM, 72 hrs): −80.4 ± 1.4%
- Percent inhibition−Percent Stimulation±SEM ([2]; 0.3 μM, 48 hrs): −82.3 ± 3.0%
- Percent inhibition−Percent Stimulation±SEM ([2]; 0.3 μM, 72 hrs): −30.3 ± 6.9%
- Percent inhibition−Percent Stimulation±SEM ([2]; 3.0 μM, 48 hrs): −92.7 ± 0.6%
- Percent inhibition−Percent Stimulation±SEM ([2]; 3.0 μM, 72 hrs): −65.5 ± 1.6%
- Percent inhibition−Percent Stimulation±SEM ([2]; 30 μM, 48 hrs): −94.7 ± 0.5%
- Percent inhibition−Percent Stimulation±SEM ([2]; 30 μM, 72 hrs): −69.5 ± 2.0%
- Percent inhibition−Percent Stimulation±SEM ([3]; 0.3 μM, 48 hrs): −71.3 ± 28.0%
- Percent inhibition−Percent Stimulation±SEM ([3]; 0.3 μM, 72 hrs): −66.6 ± 21.5%
- Percent inhibition−Percent Stimulation±SEM ([3]; 3.0 μM, 48 hrs): −24.0 ± 32.0%
- Percent inhibition−Percent Stimulation±SEM ([3]; 3.0 μM, 72 hrs): −37.2 ± 20.2%
- Percent inhibition−Percent Stimulation±SEM ([3]; 30 μM, 48 hrs): −60.1 ± 32.9%
- Percent inhibition−Percent Stimulation±SEM ([3]; 30 μM, 72 hrs): −40.9 ± 17.6%
- Percent inhibition−Percent Stimulation±SEM ([4]; 0.3 μM, 48 hrs): −63.9 ± 3.8%
- Percent inhibition−Percent Stimulation±SEM ([4]; 0.3 μM, 72 hrs): −17.8 ± 3.5%
- Percent inhibition−Percent Stimulation±SEM ([4]; 3.0 μM, 48 hrs): −93.1 ± 0.6%
- Percent inhibition−Percent Stimulation±SEM ([4]; 3.0 μM, 72 hrs): 14.7 ± 2.5%
- Percent inhibition−Percent Stimulation±SEM ([4]; 30 μM, 48 hrs): −95.1 ± 0.7%
- Percent inhibition−Percent Stimulation±SEM ([4]; 30 μM, 72 hrs): −69.9 ± 2.6%
- Percent inhibition−Percent Stimulation±SEM ([5]; 0.3 μM, 48 hrs): −83.3 ± 3.2%
- Percent inhibition−Percent Stimulation±SEM ([5]; 0.3 μM, 72 hrs): −58.7 ± 5.0%
- Percent inhibition−Percent Stimulation±SEM ([5]; 3.0 μM, 48 hrs): −92.4 ± 1.5%
- Percent inhibition−Percent Stimulation±SEM ([5]; 3.0 μM, 72 hrs): −82.6 ± 3.4%
- Percent inhibition−Percent Stimulation±SEM ([5]; 30 μM, 48 hrs): −97.5 ± 1.0%
- Percent inhibition−Percent Stimulation±SEM ([5]; 30 μM, 72 hrs): −89.7 ± 1.9%
